{
  "source": "patent US5795899A",
  "about": "“Soluble salts of 4-amino-2-(4,4-dimethylimidazolidin-2-on-1-yl) pyrimidine-5-carboxylic acid N-methyl-N-(3-trifluoromethylphenyl)-amide, a process for the preparation thereof, the use thereof as pharmaceuticals and starting materials” (Hoechst Aktiengesellschaft, priority 1992, dated 1998)",
  "key": {"[1]": {"tested_on": "LDL receptor mRNA in human hepatocytoma cell line HepG2", "experiment": "LDL receptor mRNA expression on HepG2 cells (Northern blot)", "type": "cell-based", "conditions": "FIG. 2", "procedure": "The HepG2 cells were previously incubated in MEM standard medium which contained 10% fetal calf serum with and without hydrochloride of the compound I (10^-6 M) for 16 hours.\nLipoprotein-deficient serum (LPDS) was in this case prepared by ultracentrifugation by a standard process (Goldstein, J. L., Basu, S. K and Brown, M. S., Methods Enzymol. 98, 241 (1983)). The MRNA in the […] was prepared in analogy to the method described above.\nThe mRNA was prepared by the method described by Chomczynski, P. and Sacchi, N. in Anal. Biochem. 162, 156 (1987). […] The filters were subsequently exposed on Cronex 4 films (Dupont) in the presence of an intensifying screen at -70° C. overnight or for up to 14 days, and the hybridization signals were quantified from the intensity of blackening of the film using a commercially available laser densitometer. Subsequently, the quotient was determined from the intensity of the LDL receptor band and of the actin band as internal standard to correct for variations in yield. […]"}, "LDL receptor": {"tested_on": "LDL receptor", "experiment": "Uptake of 125I-labeled homologous LDL / functional LDL receptor levels on HepG2 cells", "type": "cell-based, human", "conditions": "FIG. 3", "procedure": "In this test, homologous LDL which had been purified by standard processes was labeled with ^125 I by the iodine monochloride method. Used in this case was the method of Bilheimer which is disclosed in the literature and is a modification of the iodination technique originally developed by McFarlaine (compare Bilheimer, D. W., Eisenberg, S., and Levy, R. L., Biochim. Biophys. Acta, 260, 212 (1972)).\nTo determine the ^125 I-LDL incorporation, HepG2 cells were preincubated with and without hydrochloride of the compound I for 36 hours and subsequently incubated with iodine-labeled LDL at 37° C. in an incubator for 3 hours.\nSubsequently, the cells were washed in the presence of 2% bovine serum albumin, the cells were lyzed with 1 ml of 0.1N NaOH, and the incorporated radioactivity was measured. The specific radioactivity uptake (total radioactivity uptake less the unspecific radioactivity uptake) per mg of protein was then calculated, as generally customary, via a protein determination by the Lowry method, and the radioactivity taken up by the control […] was set equal to 100%."}, "[2]": {"tested_on": "tumor cells (L 1210, A 549, HT 29)", "experiment": "Cell proliferation inhibition (MTT assay), overall statement", "type": "cell-based, mouse and human", "procedure": "The reduced inhibitory effect on cell proliferation was tested on exponentially growing animal (mouse leukemia cells, L 1210) and human (bronchial carcinoma cells, A 549; colon carcinoma cells, HT 29) tumor cells. This entailed the tumor cells being incubated in RPMI standard medium with various concentrations of the test substances for 72 hours. Cell incubations only in fresh medium served as control. Incubations were set up in quadruplet. […] After incubation for a further 7 to 24 hours, the cell supernatant was carefully removed and the formazan dye in the cells was solubilized by adding DMSO and measured quantitatively by photometry at 492 nm. The ratio of the extinction of the substance incubations to the control incubation was quantified. The coefficient of variation in each incubation series was less than 15%. The following Table 6 indicates the IC50 values (IC50 [μg/ml] is the concentration of the test substance per ml which is necessary for 50% inhibition) from these investigations."}},
  "data": [
    {"smiles": "CN(C(=O)c1cnc(N2CC(C)(C)NC2=O)nc1N)c1cccc(C(F)(F)F)c1.Cl", "note": "[Compound I as hydrochloride, 4-amino-2-(4,4-dimethyl-2-oxo-1-imidazolidinyl)pyrimidine-5-carboxylic acid N-methyl-N-(3-trifluoromethylphenyl)amide hydrochloride]", "values": [
      {"measurement": "Overinduction of LDL receptor mRNA in lipoprotein-deficient serum compared with whole serum", "setting": "[1]; 10^-6 M, 16 hours", "value": "further by the same factor as was observed on stimulation in whole serum"},
      {"measurement": "Dependence of LDL receptor mRNA stimulation on cholesterol supply level", "setting": "[1]; whole serum and lipoprotein-deficient serum", "value": "does not depend on the cholesterol \"supply level\""},
      {"measurement": "Functional LDL receptor levels on HepG2 cells", "setting": "LDL receptor", "value": "corresponding increase"},
      {"measurement": "Increase in uptake of 125I-labeled homologous LDL", "setting": "LDL receptor; HepG2, preincubation 36 hours, then 125I-LDL at 37° C. 3 hours", "value": "increased by up to two and a half times"},
      {"measurement": "Proliferation inhibition compared with imanixil (HOE 402) / its hydrochloride (in words)", "setting": "[2]", "value": "must be given at a considerably higher dose in order to have the same proliferation-inhibiting effect"},
      {"measurement": "Solubility in water (in words)", "value": "good solubility"},
      {"measurement": "1 part by mass dissolves in . . . parts of H2 O", "setting": "Table 2, Temp. [°C]: hydrochloride 25.0, nitrate 23.5, p-toluenesulfonate 23.2, hydrogen (R,R)-tartrate 24.6, free base 24.8", "value": "1.33 parts of H2 O"}
    ]}
  ]
}
